Results from US20250325256A1, “LIPID PATCH” (SENSACH AB, priority 2021, published 2025).
Like-named read-outs stand apart in the source and are kept apart here.

Assays:
[1] = format: in vitro ADME, pig
Description: Therefore, identical reverse iontophoretic extraction experiments were performed with an empty donor solution (i.e., neat PBS buffer pH 7.4) and the results are shown in FIG. 14. As in the previous section, Trp was extracted towards both receptor compartments, however, the main direction of extraction was towards the cathode. […] This is most likely due to the fact that the amount of extracted Kyn was below the limit of detection by means of HPLC-UV. Therefore, a more sensitive analysis technique is required for quantification of endogenously present Kyn. The cumulative amount of extracted Trp to the cathode was 0.44±0.06 nmol/cm^2 and the anode 0.22±0.05 nmol/cm^2.
Control reverse iontophoretic extraction experiments were conducted in order to estimate the levels of endogenous Trp and, potentially Kyn. It is known that Trp is present in the SC as a part of natural moisturizing factor (NMF), which primarily consists of free amino acids and their derivatives55,56. These experiments were performed using the identical experimental setup with a neat PBS buffer (pH 7.4) in the donor compartment (i.e., no Trp or Kyn being present) and 10 mM HEPES with 60 mM NaCl as background electrolyte (pH 7.4). Sampling was performed once an hour for 6 hours by withdrawing 1 mL of receptor solution and replacing it with a 1 mL of fresh HEPES buffer).

[2] = Post iontophoretic passive extraction (further 18 hours); format: in vitro ADME, pig; conditions: for Normalized cumulative amount at anode / Normalized cumulative amount at cathode: mean ± SEM
Text: Therefore, while enhancing extraction at the cathode, electroosmosis (at pH>skin pI) retards the extraction of anions and zwitterions towards the anode as they have to move against the solvent flow. This may result in a build-up of zwitterions moving towards the anode and against the electroosmotic flow. Therefore, the skin membrane that faces the anodal compartment could potentially contain higher amounts of zwitterionic compounds compared to the skin membrane facing the cathodal compartment. In order to further investigate the effect of electroosmosis, the post iontophoretic passive extraction experiments were performed for another 18 hours.
The effect of receptor solution pH on the cumulative amount of endogenous substances extracted from the skin membrane during post iontophoretic passive extraction as well as from passive control experiments is shown in FIG. 16. […] Moreover, in post iontophoretic experiments, there was an increase in the amount of endogenous substances passively extracted into anode compartment with increased pH. In order to determine the amount of endogenous substances obtained during the post iontophoretic step, the cumulative amount of endogenous substances extracted during 6 hours of reverse iontophoresis were subtracted from the total cumulative amount.
In extraction experiments preformed without a cubic phase, sampling was performed every hour for six hours by withdrawing 1 mL from the receptor compartments and replacing it with 1 mL of neat buffer solution. After the final sampling the current was stopped and the donor compartment was emptied. The post iontophoretic passive extraction from the skin membranes was allowed to continue for another 18 hours in order to investigate the effect of electroosmosis, since the skin membrane was the only source of endogenous substance after removal of donor solution. In total 7 samplings were performed over 24 hours i.e., 6 during the current passage and 1 from the post iontophoretic passive extraction. In case of reverse iontophoretic extraction into the cubic phase, the sampling was performed in the same way i.e., every hour for 6 hours 1 mL of receptor solution was replaced with a 1 mL of a neat buffer. However, in contrast to previous procedure, the experiment was terminated after 6 hours of current passage. The cubic phase was collected into 1.7 mL Eppendorf tube ensuring that as little residue as possible was left on the skin surface. The extraction of endogenous substances from the cubic phase was performed as follows: 1 mL of Milli-Q water was added to the cubic phase and left on shaker for 1 hour. After that, each Eppendorf tube was vortex for 1 minute and the final aqueous solution was collected with a syringe. Small part of a cubic phase was taken for SAXD measurements in order to investigate any potential changes in the phase after reverse iontophoretic experiment.

[3] = Reverse iontophoretic extraction into GMO cubic phase receptor matrix; format: in vitro ADME, pig; conditions: for Cumulative amount Cubic at anode / Cumulative amount Cubic at cathode: in the cubic phase, 6 h, HEPES pH 7.4; for Cumulative amount Total at anode / Cumulative amount Total at cathode: sum of receptor solution after 6 hours and cubic phase
Description: Another objective of the present intention was to investigate the potency of a liquid crystalline cubic phase formed by GMO and water to serve as a matrix for iontophoresis. In order to keep experimental conditions as similar as possible to the previously described experiments, the same horizontal side-by-side cells were used. A fully swollen cubic phase (Pn3m space group) was added into a custom-made sample holder ensuring the formulation was in contact with the skin. In order to prevent contact between the cubic phase and the electrodes, 2 mL of HEPES buffer (pH 7.4, 60 mM NaCl) was added to each receptor compartment. Sampling was performed by withdrawing 1 ml of receptor solution and replacing it with a 1 mL of empty buffer every hour for 6 hours. After the last sampling, the experiment was terminated, and the cubic phase was collected for further analysis. […] It is important to point out that partitioning of Trp and Kyn into cubic bilayer was not taken into account during the calculation of the extracted amounts of respective endogenous substance. The amounts were determined based on the volume of the receptor matrix (100 μL).
The samples for reverse iontophoretic extraction experiments consisting of a liquid crystalline cubic phase were prepared by weighing 0.1 g of glycerol monooleate (GMO) in a 1.8 mL glass vials. GMO was then melted at 45° C. by immersing the vials in the water bath and centrifuged at 1000 g for 5 minutes. The vials were then placed in the freezer (−20° C.) for 30 minutes in order for GMO to crystalize. After crystallization vials were taken out of the freezer and 0.5 g of Milli-Q water was added to each vial, ensuring the excess of added water. […] Prior to use, each vial was examined between cross polarizers for any sign of anisotropy, which would imply that sample had not yet reached equilibrium. […]

[4] = for Kcub/w / log Kcub/w: fully swollen Pn3m cubic phase (GMO/water) vs water; for bilayer/water partitioning, Kcub/w / bilayer/water partitioning, log Kcub/w: fully swollen Pn3m cubic phase (GMO/water), calculated; for partitioning into the cubic lipid bilayer compared to kynurenine: fully swollen GMO cubic phase
Description: Four concentrations of Trp and Kyn in a range 0.125 mM to 1 mM, corresponding to lipid:Trp(Kyn) ratio in the range 7200:1-900:1, were prepared in Milli-Q water in order to investigate the effect of concertation on the partitioning. The fully swollen cubic phases (˜0.25 g) were prepared by mixing the appropriate amount of GMO with an excess of Milli-Q water (1:1 weight ratio) in a 1.7 mL glass vials and left to equilibrate for 7 days. When samples were equilibrated (typically within 2 days a glass-clear and non-floating cubic phase was formed), each vial was checked between cross polarizers to ensure that no birefringence could be observed. The excess of water was then removed and 500 μL of solution with different concentrations of Trp/Kyn (molar ratio 1:1) were added to each vial. Final samples were allowed to equilibrate with respect to Trp and Kyn partitioning between the lipid bilayer and the aqueous phase. First sampling was performed after one week of equilibration by withdrawing 50 μL of the aqueous phase. Second sampling was performed in identical manner after 2 weeks of equilibration to investigate the time aspect on the partitioning. All samples collected during the partition study were diluted to a final volume 500 μL with Milli-Q water and filtered with a 0.2 μm syringe filters (13 mm PTFE membrane, VWR International, USA) prior to the HPLC-UV analysis. All partition experiments were performed in triplicates.
The lipid bilayer/water partition coefficient, Kbl/w, may be defined as
where [X] is the concentration of an endogenous substance of interest (e.g., Trp and Kyn) in the bilayer and in water. While concertation of a substance in the aqueous phase can easily be determined by a suitable analytical procedure (e.g., HPLC, LC-MS etc.), determination of the concertation in the bilayer requires two assumptions. […] The second assumption is that the concentration of an endogenous substance in the water channels of the cubic phase is the same as in the water bulk phase, which is based on the equilibrium between chemical potentials of endogenous substances in water channels and in the bulk phase. Thus, the partition coefficient may be calculated by rewriting the Eq. 2 as follows
where Vw is the volume of a water solution containing endogenous substance X added to the cubic phase, [X]0w is the initial concentration of an endogenous substance, [X]w is the concentration of endogenous substance in the water phase after equilibration, Vbl is the volume of GMO, Vcube is the volume of water that was added to GMO to form a cubic phase.
The quantification of Trp and Kyn was performed by HPLC-UV system (Agilent 1100 Series, Germany). The chromatographic separation of Trp and Kyn was carried out on 250 mm×4.6 mm Kromasil C18 column with particle size of 5 μm (AkzoNobel, Bellefonte, USA). Endogenous substances were separated by gradient elution using mobile phase A consisting of 10 mM NaH2PO4 (pH 2.8) and mobile phase B consisting of 100% MeOH at 0.9 mL/min flow rate and 40° C. column temperature. […] The total run time was 17 minutes and injection volume was set to 20 μL. Detection of Trp and Kyn was performed at their UV absorbance maxima, at 280 nm and 360 nm, respectively. Stock solutions of 10 mM of Trp and Kyn for calibration curve were prepared in Milli-Q water and kept in the freezer (−20° C.) for no longer than one day after preparation. Calibration standards for calibration curve were analyzed in the range 0.78 μM to 100 μM (R^2>0.999) the same day as the experimental samples.

[5] = pH 4.0, 24 h amount minus first 6 hours
[6] = pH 7.4, 24 h amount minus first 6 hours
[7] = pH 9.0, 24 h amount minus first 6 hours
[8] = pH 4.0, from normalized cumulative amounts
[9] = pH 7.4, from normalized cumulative amounts
[10] = pH 9.0, from normalized cumulative amounts

| Compound | Normalized cumulative amount at anode [2, 5] [nmol/cm^2] | Normalized cumulative amount at cathode [2, 5] [nmol/cm^2] | Normalized cumulative amount at anode [2, 6] [nmol/cm^2] | Normalized cumulative amount at cathode [2, 6] [nmol/cm^2] | Normalized cumulative amount at anode [2, 7] [nmol/cm^2] | Normalized cumulative amount at cathode [2, 7] [nmol/cm^2] | Cumulative amount Cubic at anode [3] [nmol/cm^2] | Cumulative amount Cubic at cathode [3] [nmol/cm^2] | Cumulative amount Total at anode [3] [nmol/cm^2] | Cumulative amount Total at cathode [3] [nmol/cm^2] | Kcub/w [4] | log Kcub/w [4] | bilayer/water partitioning, Kcub/w [4] | bilayer/water partitioning, log Kcub/w [4] | further results |
| --- | --- | --- | --- | --- | --- | --- | --- | --- | --- | --- | --- | --- | --- | --- | --- |
| Nc1ccccc1C(=O)C[C@H](N)C(=O)O [Kyn, L-kynurenine] | 6.56 ± 2.40 | 5.31 ± 1.35 | 14.35 ± 2.33 | 2.12 ± 8.37 | 19.90 ± 2.45 | 10.29 ± 2.07 | 0.28 ± 0.28 | 5.62 ± 0.45 | 0.28 ± 0.28 | 7.53 ± 0.83 | 1.3 | 0.1 | 1.5 | 0.2 | detection of endogenous Kyn [1]: no Kyn was detected |
| N[C@@H](Cc1c[nH]c2ccccc12)C(=O)O [Trp, L-tryptophan] | 6.22 ± 1.49 | 5.36 ± 1.32 | 14.13 ± 2.25 | 7.38 ± 2.57 | 17.52 ± 1.58 | 9.77 ± 1.95 | 0.68 ± 0.05 | 5.29 ± 0.48 | 0.68 ± 0.05 | 6.57 ± 1.00 | 2.2 | 0.3 | 3.0 | 0.5 | contribution of endogenous Trp to the total cumulative amount of extracted Trp (at the cathode) ([1]; pig, 6 h, pH 7.4): approximately 6%; cumulative amount of extracted endogenous Trp to the anode ([1]; pig, 6 h, pH 7.4): 0.22±0.05 nmol/cm^2; cumulative amount of extracted endogenous Trp to the cathode ([1]; pig, 6 h, pH 7.4): 0.44±0.06 nmol/cm^2; Ratio (Trp/Kyn) at anode [2, 8]: 1.19 ± 0.17; Ratio (Trp/Kyn) at cathode [2, 8]: 1.05 ± 0.03; Ratio (Trp/Kyn) at anode [2, 9]: 0.99 ± 0.02; Ratio (Trp/Kyn) at cathode [2, 9]: 0.86 ± 0.08; Ratio (Trp/Kyn) at anode [2, 10]: 0.89 ± 0.02; Ratio (Trp/Kyn) at cathode [2, 10]: 0.95 ± 0.02; Ratio Trp/Kyn at cathode cubic ([3]; from amounts in the cubic phase): 0.94 ± 0.04; Ratio Trp/Kyn at cathode total ([3]; from the total cumulative amount): 0.86 ± 0.05; partitioning into the cubic lipid bilayer compared to kynurenine [4]: twice as high; partitioning into the cubic lipid bilayer compared to kynurenine ([4]; listed as tryptophan): approximately twice as high |
